Legend:
[1] = Selectivity index, ratio of IC50 for rat L6 cells to IC50 for Trypanosoma cruzi; assay type: functional
Plasmodium falciparum = experiment: Antiparasitic activity against Plasmodium falciparum; assay type: functional, organism-based
Leishmania donovani [2] = experiment: Antileishmanial activity against Leishmania donovani axenic amastigotes; assay type: functional, organism-based
L6 = experiment: Cytotoxicity against rat L6 cells by Alamar blue assay; assay type: cell-based
[3] = Selectivity index, ratio of IC50 for rat L6 cells to IC50 for Leishmania donovani in mouse macrophages; assay type: functional
[4] = system: Trypanosoma brucei rhodesiense; experiment: Antiparasitic activity against Trypanosoma brucei rhodesiense by Alamar blue assay; assay type: functional, organism-based
Leishmania donovani [5] = experiment: Antileishmanial activity against Leishmania donovani in mouse macrophages; assay type: functional, organism-based
Trypanosoma cruzi = experiment: Antiparasitic activity against Trypanosoma cruzi; assay type: functional, organism-based

SMILES | Ratio IC50 [1] | IC50 (Plasmodium falciparum) [µM] | IC50 (Leishmania donovani [2]) [µM] | IC50 (L6) [µM] | Ratio IC50 [3] | IC50 [4] [µM] | IC50 (Leishmania donovani [5]) [µM] | IC50 (Trypanosoma cruzi) [µM]
C=CC(C#CC#CC(O)CCCCCCCCC)OC(C)=O (centres undefined) | 18 | 1.4 | 0.13 | 12 | 37 | 0.46 | 0.32 | 0.65
C=CC(C#CC#CC(O)CCCCCCCCCCOC(C)=O)OC(C)=O (centres undefined) | 150 | 2.2 | 0.14 | 58 | 26 | 1.1 | 2.3 | 0.4
CCCCCCCCCC(O)C#CC#CC(CC)OC(C)=O (centres undefined) | 2.1 | 19 | 7.8 | 54 | <5.5 | 18 | > 10 | 26
C[C@@H]1CC[C@H]2[C@@H](C)C(=O)O[C@@H]3O[C@@]4(C)CC[C@@H]1[C@]32OO4 [ARTEMISININ] |  | 0.0043 |  |  |  |  |  | 
O=C(Cn1ccnc1[N+](=O)[O-])NCc1ccccc1 [BENZNIDAZOLE] |  |  |  |  |  |  |  | 2.4
Nc1nc(N)nc(Nc2ccc([As]3SCC(CO)S3)cc2)n1 (centres undefined) [MELARSOPROL] |  |  |  |  |  | 0.0058 |  | 
CCCCCCCCCCCCCCCCOP(=O)([O-])OCC[N+](C)(C)C [MILTEFOSINE] |  |  |  |  |  |  | 0.71 | 
